From PubChem BioAssay AID248 (DTP/NCI, 2004)
Values joined by “and” are separate entries in the source; they are usually repeats but may differ in a detail not shown here. Identical values can stand only once. Toxic doses and inconclusive results are not listed. Rule as the data show it: active = T/C of 150% or more; inactive = T/C below 125%.

System: L1210 leukemia ip in BDF1 mice, survival T/C
Assay: NCI In Vivo Anticancer Drug Screen. Data for tumor model L1210 Leukemia (intraperitoneal) in B6D2F1 (BDF1) mice
Settings: endpoint: mean survival time, higher = longer survival
Method in brief: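 Antitumor effect is assessed in tumor-bearing animals. Survival in the compound arm is compared with a vehicle-dosed control arm and expressed as their quotient.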

[1] = dose: 50.0 mg/kg/injection, schedule: Q01DX009 (ip), vehicle: saline with Tween-80
[2] = dose: 100.0 mg/kg/injection, schedule: Q01DX009 (ip), vehicle: saline with Tween-80
[3] = dose: 100.0 mg/kg/injection, schedule: Q01DX001 (ip), vehicle: saline
[4] = dose: 200.0 mg/kg/injection, schedule: Q01DX001 (ip), vehicle: saline
[5] = dose: 400.0 mg/kg/injection, schedule: Q01DX001 (ip), vehicle: saline
[6] = dose: 100.0 mg/kg/injection, schedule: Q04DX002 (ip), vehicle: Klucel (hydroxypropylcellulose) (HPC)
[7] = dose: 200.0 mg/kg/injection, schedule: Q04DX002 (ip), vehicle: Klucel (hydroxypropylcellulose) (HPC)
[8] = dose: 400.0 mg/kg/injection, schedule: Q04DX002 (ip), vehicle: Klucel (hydroxypropylcellulose) (HPC)
[9] = dose: 100.0 mg/kg/injection, schedule: Q04DX003 (ip), vehicle: saline with Tween-80
[10] = dose: 200.0 mg/kg/injection, schedule: Q01DX009 (ip), vehicle: saline with Tween-80
[11] = dose: 200.0 mg/kg/injection, schedule: Q04DX003 (ip), vehicle: saline with Tween-80
[12] = dose: 400.0 mg/kg/injection, schedule: Q01DX009 (ip), vehicle: saline with Tween-80
[13] = dose: 400.0 mg/kg/injection, schedule: Q04DX003 (ip), vehicle: saline with Tween-80
[14] = dose: 100.0 mg/kg/injection, schedule: Q04DX003 (ip), vehicle: saline
[15] = dose: 200.0 mg/kg/injection, schedule: Q04DX003 (ip), vehicle: saline
[16] = dose: 400.0 mg/kg/injection, schedule: Q04DX003 (ip), vehicle: saline
[17] = dose: 25.0 mg/kg/injection, schedule: Q01DX009 (ip), vehicle: saline
[18] = dose: 100.0 mg/kg/injection, schedule: Q01DX001 (ip), vehicle: carboxymethylcellulose (CMC)
[19] = dose: 25.0 mg/kg/injection, schedule: Q04DX002 (ip), vehicle: Klucel (hydroxypropylcellulose) (HPC)
[20] = dose: 50.0 mg/kg/injection, schedule: Q04DX002 (ip), vehicle: Klucel (hydroxypropylcellulose) (HPC)

Measured: T/C

COC(=O)C1=CC2C3C=C(C(=O)OC)C(C3)C2C1 (stereo not given)
inactive: dose: 75.0 mg/kg/injection, schedule: Q01DX001 (ip), vehicle: Klucel (hydroxypropylcellulose) (HPC) 100 % of control | dose: 150.0 mg/kg/injection, schedule: Q01DX001 (ip), vehicle: Klucel (hydroxypropylcellulose) (HPC) 103 % of control | dose: 300.0 mg/kg/injection, schedule: Q01DX001 (ip), vehicle: Klucel (hydroxypropylcellulose) (HPC) 98 % of control

Cc1cc(C)c(Sc2cc(C)sc2C)c(C)c1
inactive: dose: 100.0 mg/kg/injection, schedule: Q01DX001 (ip), vehicle: acetone 91 % of control | dose: 100.0 mg/kg/injection, schedule: Q04DX003 (ip), vehicle: acetone 91 % of control | dose: 200.0 mg/kg/injection, schedule: Q01DX001 (ip), vehicle: acetone 91 % of control | dose: 200.0 mg/kg/injection, schedule: Q04DX003 (ip), vehicle: acetone 91 % of control | dose: 400.0 mg/kg/injection, schedule: Q01DX001 (ip), vehicle: acetone 91 % of control | dose: 400.0 mg/kg/injection, schedule: Q04DX003 (ip), vehicle: acetone 100 % of control

COc1cc(/C=C2\C(=O)NC(=O)N(c3ccccc3)C2=O)cc(OC)c1OC
inactive: [1] 101 % of control | [2] 100 % of control

CC1(C)OC2OC(CO)C(O)C2O1 (stereo not given)
inactive: [3] 101 % of control | [4] 97 % of control | [5] 98 % of control

O=S(=O)(c1ccccc1)N1CN(S(=O)(=O)c2ccccc2)CN(S(=O)(=O)c2ccccc2)C1
inactive: [6] 93 % of control | [7] 100 % of control | [8] 96 % of control

C=CCC(CC)C(=O)Cl (stereo not given)
inactive: [2] 104 % of control | [9] 94 % of control | [10] 91 % of control | [11] 94 % of control | [12] 91 % of control | [13] 102 % of control

O=c1nc(SCc2ccccc2)c(SCc2ccccc2)n[nH]1
inactive: [3] 95 % of control | [4] 98 % of control | [5] 91 % of control

Cc1ccc(S(=O)(=O)Nc2cccc(C(=O)O)c2)cc1
inactive: dose: 100.0 mg/kg/injection, schedule: Q01DX001 (ip), vehicle: other 98 % of control | [9] 98 % of control | dose: 200.0 mg/kg/injection, schedule: Q01DX001 (ip), vehicle: other 104 % of control | [11] 104 % of control | dose: 400.0 mg/kg/injection, schedule: Q01DX001 (ip), vehicle: other 102 % of control | [13] 98 % of control

O=C(O)c1ccc(NCc2cc(=O)[nH]c(=O)[nH]2)cc1
inactive: [14] 101 % of control | [15] 95 % of control | [16] 103 % of control

Nc1ncnc2nc(-c3cccc([N+](=O)[O-])c3)[nH]c12
inactive: dose: 50.0 mg/kg/injection, schedule: Q01DX001 (ip), vehicle: Klucel (hydroxypropylcellulose) (HPC) 100 % of control | dose: 100.0 mg/kg/injection, schedule: Q01DX001 (ip), vehicle: Klucel (hydroxypropylcellulose) (HPC) 91 % of control | dose: 200.0 mg/kg/injection, schedule: Q01DX001 (ip), vehicle: Klucel (hydroxypropylcellulose) (HPC) 88 % of control

CCOc1ccc([N+](=O)[O-])cc1
inactive: [6] 100 % of control | [7] 91 % of control | [8] 103 % of control

C1CNC2CCCC2C1 (stereo not given)
inactive: dose: 75.0 mg/kg/injection, schedule: Q01DX001 (ip), vehicle: carboxymethylcellulose (CMC) 103 % of control

O=C(Nc1ccc(S(=O)(=O)F)cc1)/C(=C/c1ccc([N+](=O)[O-])cc1)c1ccccc1
inactive: dose: 12.5 mg/kg/injection, schedule: Q01DX009 (ip), vehicle: saline with Tween-80 102 % of control | dose: 25.0 mg/kg/injection, schedule: Q01DX009 (ip), vehicle: saline with Tween-80 109 % of control | [1] 98 % of control

Cc1cccc(C)c1NC(=O)Oc1c(C)cccc1C
inactive: dose: 100.0 mg/kg/injection, schedule: Q01DX009 (ip), vehicle: Klucel (hydroxypropylcellulose) (HPC) 106 % of control | dose: 100.0 mg/kg/injection, schedule: Q04DX003 (ip), vehicle: Klucel (hydroxypropylcellulose) (HPC) 102 % of control | dose: 200.0 mg/kg/injection, schedule: Q01DX009 (ip), vehicle: Klucel (hydroxypropylcellulose) (HPC) 101 % of control | dose: 200.0 mg/kg/injection, schedule: Q04DX003 (ip), vehicle: Klucel (hydroxypropylcellulose) (HPC) 102 % of control | dose: 400.0 mg/kg/injection, schedule: Q01DX009 (ip), vehicle: Klucel (hydroxypropylcellulose) (HPC) 97 % of control | dose: 400.0 mg/kg/injection, schedule: Q04DX003 (ip), vehicle: Klucel (hydroxypropylcellulose) (HPC) 100 % of control

Oc1cccnc1I
inactive: dose: 50.0 mg/kg/injection, schedule: Q01DX001 (ip), vehicle: saline 102 % of control | [3] 98 % of control | [4] 98 % of control | [5] 102 % of control

CC(C)(C)c1cc(CN2CCOCC2)cc(C(C)(C)C)c1O
inactive: [2] 96 % of control | [10] 104 % of control | [12] 96 % of control

NC(CS)=NCCc1nc2ccccc2[nH]1
inactive: dose: 100.0 mg/kg/injection, schedule: Q04DX002 (ip), vehicle: saline 107 % of control

CCCCC(CC)C1N(C)CCCN1C (stereo not given)
inactive: [9] 92 % of control | [11] 98 % of control

c1ccc2c(C3CCCCN3)c[nH]c2c1 (stereo not given)
inactive: dose: 12.5 mg/kg/injection, schedule: Q01DX009 (ip), vehicle: saline 88 % of control | [17] 90 % of control | dose: 25.0 mg/kg/injection, schedule: Q04DX003 (ip), vehicle: saline 103 % of control | dose: 50.0 mg/kg/injection, schedule: Q04DX003 (ip), vehicle: saline 92 % of control | [3] 97 % of control

CCCCC/C=N\NC(N)=S
inactive: [18] 96 % of control

C=CC(=O)NC(C)C(=O)O (stereo not given)
inactive: [3] 95 % of control | [4] 102 % of control | [5] 98 % of control

CCCCCCOC(=O)C(C)OC(=O)OCCOCCOC(=O)OC(C)C(=O)OCCCCCC (stereo not given)
inactive: [3] 100 % of control | [4] 96 % of control | [5] 100 % of control

COC1C(CO)OC(n2cnc3c(=S)nc(N)[nH]c32)C1O (stereo not given)
inactive: dose: 25.0 mg/kg/injection, schedule: Q01DX009 (ip), vehicle: carboxymethylcellulose (CMC) 105 % of control | [17] 100 % of control | dose: 50.0 mg/kg/injection, schedule: Q01DX009 (ip), vehicle: carboxymethylcellulose (CMC) 103 % of control | dose: 50.0 mg/kg/injection, schedule: Q01DX009 (ip), vehicle: saline 116 % of control | [18] 111 % of control
active: dose: 100.0 mg/kg/injection, schedule: Q01DX009 (ip), vehicle: saline 157 % of control | dose: 200.0 mg/kg/injection, schedule: Q01DX009 (ip), vehicle: carboxymethylcellulose (CMC) 155 % of control | dose: 200.0 mg/kg/injection, schedule: Q01DX009 (ip), vehicle: saline 168 % of control | dose: 400.0 mg/kg/injection, schedule: Q01DX001 (ip), vehicle: carboxymethylcellulose (CMC) 154 % of control and 158 % of control

Cc1cccc(NC(C(=O)O)c2ccccc2)c1 (stereo not given)
inactive: [6] 100 % of control | [7] 93 % of control | [8] 89 % of control

O=Cc1cccn1-c1cccc2c(-n3cccc3C=O)cccc12
inactive: [19] 97 % of control | [20] 93 % of control | [6] 97 % of control

CCN(c1c(C)cc(C)c(N(CC(=O)O)S(=O)(=O)c2ccccc2)c1C)S(=O)(=O)c1ccccc1
inactive: [2] 101 % of control | [14] 94 % of control | [10] 97 % of control | [15] 100 % of control | [12] 95 % of control | [16] 103 % of control

CCc1ccc(C(=O)CCCCl)cc1
inactive: [9] 94 % of control | [11] 100 % of control | [13] 86 % of control

O=C1NC(c2cccs2)N2C(=O)NC(c3cccs3)N12 (stereo not given)
inactive: dose: 100.0 mg/kg/injection, schedule: Q04DX002 (ip), vehicle: gum acacia 105 % of control | dose: 200.0 mg/kg/injection, schedule: Q04DX002 (ip), vehicle: gum acacia 109 % of control | dose: 400.0 mg/kg/injection, schedule: Q04DX002 (ip), vehicle: gum acacia 112 % of control

COc1ccc(C(=O)/C=C/c2cccc(OCc3ccccc3)c2)cc1
inactive: [19] 102 % of control | [20] 91 % of control | [6] 102 % of control | [7] 92 % of control | [8] 103 % of control
